Where “and” joins values, the source holds several entries; their conditions need not be identical. Equal entries are not always repeated. Records with an inconclusive call do not appear.
Tested on: BDF1 mice, colon carcinoma 38 sc, T/C %
Assay: NCI In Vivo Anticancer Drug Screen. Data for tumor model Colon Carcinoma 38 (subcutaneous) in B6D2F1 (BDF1) mice
Procedure: The antitumor activity of compounds was measured in mice bearing transplantable tumors. Survival or tumor size were measured and the results are expressed as the measurement made in the treated group (T) divided by the measurement made in the vehicle treated control group (C). The tumor model used in this assay is Colon Carcinoma 38 (subcutaneous) in B6D2F1 (BDF1) mice

[1] = endpoint: median tumor weight (est.), dose: 25.0 mg/kg/injection, schedule: Q07DX002 (ip), vehicle: saline, higher = larger tumour
[2] = endpoint: median tumor weight (est.), dose: 50.0 mg/kg/injection, schedule: Q07DX002 (ip), vehicle: saline, higher = larger tumour

**Q.** Which results are given for Cc1ccc2c(c1)n([O-])c1cc(Cl)ccc1[n+]2=O?
**A.** T/C (endpoint: median tumor weight (est.), dose: 25.0 mg/kg/injection, schedule: Q07DX002 (ip), vehicle: saline with Tween-80, higher = larger tumour): 118 % of control; T/C (endpoint: median tumor weight (est.), dose: 50.0 mg/kg/injection, schedule: Q07DX002 (ip), vehicle: saline with Tween-80, higher = larger tumour): 102 % of control; T/C (endpoint: median tumor weight (est.), dose: 100.0 mg/kg/injection, schedule: Q07DX002 (ip), vehicle: saline with Tween-80, higher = larger tumour): 78 % of control; T/C (endpoint: median tumor weight (est.), dose: 200.0 mg/kg/injection, schedule: Q07DX002 (ip), vehicle: saline with Tween-80, higher = larger tumour): 76 % of control; T/C (endpoint: median tumor weight (est.), dose: 400.0 mg/kg/injection, schedule: Q07DX002 (ip), vehicle: saline with Tween-80, higher = larger tumour): 79 % of control

**Q.** For CC[C@@]1(O)C[C@H](OC2CC(N(C)C)C(OC3CC(O)C(OC4CCC(=O)C(C)O4)C(C)O3)C(C)O2)c2c(cc3c(c2O)C(=O)c2c(O)cccc2C3=O)[C@H]1C(=O)OC (stereo not given in full), which T/C (endpoint: median survival time, dose: 5.3 mg/kg/injection, schedule: Q07DX002 (iv), vehicle: water, higher = longer survival) is on record?
**A.** The T/C was 114 % of control.

**Q.** And the T/C (endpoint: median survival time, dose: 8.3 mg/kg/injection, schedule: Q07DX002 (iv), vehicle: water, higher = longer survival)?
**A.** Its T/C is 105 % of control.

**Q.** What about the T/C (endpoint: median survival time, dose: 20.0 mg/kg/injection, schedule: Q07DX002 (iv), vehicle: water, higher = longer survival) of the same compound?
**A.** Its T/C is 115 % of control.

**Q.** What about the T/C (endpoint: median tumor weight (est.), dose: 0.75 mg/kg/injection, schedule: Q07DX002 (ip), vehicle: water, higher = larger tumour) of the same compound?
**A.** Its T/C is 67 % of control.

**Q.** And the T/C (endpoint: median tumor weight (est.), dose: 0.75 mg/kg/injection, schedule: Q07DX003 (ip), vehicle: water, higher = larger tumour)?
**A.** Its T/C is 98 % of control.

**Q.** And the T/C (endpoint: median tumor weight (est.), dose: 1.5 mg/kg/injection, schedule: Q07DX003 (ip), vehicle: water, higher = larger tumour)?
**A.** The T/C was 123 % of control.

**Q.** What about the T/C (endpoint: median tumor weight (est.), dose: 3.0 mg/kg/injection, schedule: Q07DX003 (ip), vehicle: water, higher = larger tumour) of the same compound?
**A.** The T/C was 103 % of control.

**Q.** And the T/C (endpoint: median tumor weight (est.), dose: 6.0 mg/kg/injection, schedule: Q07DX003 (ip), vehicle: water, higher = larger tumour)?
**A.** The T/C was 75 % of control.

**Q.** And the T/C (endpoint: median tumor weight (est.), dose: 12.0 mg/kg/injection, schedule: Q07DX003 (ip), vehicle: water, higher = larger tumour)?
**A.** The T/C was 40 % of control.

**Q.** Which results are given for O=C(O)CC(=O)O.[NH-]CC[NH-].[Pt+2]?
**A.** T/C (endpoint: median tumor weight (est.), dose: 14.1 mg/kg/injection, schedule: Q07DX002 (ip), vehicle: dextrose, higher = larger tumour): 71 % of control and 85 % of control; T/C (endpoint: median tumor weight (est.), dose: 28.1 mg/kg/injection, schedule: Q07DX002 (ip), vehicle: dextrose, higher = larger tumour): 69 % of control; T/C (endpoint: median tumor weight (est.), dose: 28.2 mg/kg/injection, schedule: Q07DX002 (ip), vehicle: dextrose, higher = larger tumour): 71 % of control and 75 % of control; T/C (endpoint: median tumor weight (est.), dose: 56.2 mg/kg/injection, schedule: Q07DX002 (ip), vehicle: dextrose, higher = larger tumour): 42 % of control

**Q.** C(CC1CO1)C1CO1 (stereo not given) was tested. Which T/C (endpoint: median tumor weight (est.), dose: 5.0 mg/kg/injection, schedule: Q07DX002 (ip), vehicle: Klucel (hydroxypropylcellulose) (HPC), higher = larger tumour) did it give?
**A.** The T/C was 172 % of control and 185 % of control.

**Q.** And the T/C (endpoint: median tumor weight (est.), dose: 10.0 mg/kg/injection, schedule: Q07DX002 (ip), vehicle: Klucel (hydroxypropylcellulose) (HPC), higher = larger tumour)?
**A.** The T/C was 106 % of control.

**Q.** And the T/C (endpoint: median tumor weight (est.), dose: 40.0 mg/kg/injection, schedule: Q07DX002 (ip), vehicle: Klucel (hydroxypropylcellulose) (HPC), higher = larger tumour)?
**A.** Its T/C is 245 % of control.

**Q.** And the T/C (endpoint: median tumor weight (est.), dose: 80.0 mg/kg/injection, schedule: Q07DX002 (ip), vehicle: Klucel (hydroxypropylcellulose) (HPC), higher = larger tumour)?
**A.** Its T/C is 115 % of control.

**Q.** What about the T/C (endpoint: median tumor weight (est.), dose: 160.0 mg/kg/injection, schedule: Q07DX002 (ip), vehicle: Klucel (hydroxypropylcellulose) (HPC), higher = larger tumour) of the same compound?
**A.** The T/C was 81 % of control.

**Q.** What does the source list for NC(=O)NO?
**A.** T/C [1]: 99 % of control; T/C [2]: 69 % of control; T/C (endpoint: median tumor weight (est.), dose: 100.0 mg/kg/injection, schedule: Q07DX002 (ip), vehicle: saline, higher = larger tumour): 99 % of control; T/C (endpoint: median tumor weight (est.), dose: 100.0 mg/kg/injection, schedule: Q07DX003 (ip), vehicle: saline, higher = larger tumour): 152 % of control; T/C (endpoint: median tumor weight (est.), dose: 200.0 mg/kg/injection, schedule: Q07DX002 (ip), vehicle: saline, higher = larger tumour): 78 % of control; T/C (endpoint: median tumor weight (est.), dose: 200.0 mg/kg/injection, schedule: Q07DX003 (ip), vehicle: saline, higher = larger tumour): 43 % of control and 60 % of control; T/C (endpoint: median tumor weight (est.), dose: 400.0 mg/kg/injection, schedule: Q07DX002 (ip), vehicle: saline, higher = larger tumour): 88 % of control; T/C (endpoint: median tumor weight (est.), dose: 800.0 mg/kg/injection, schedule: Q07DX003 (ip), vehicle: saline, higher = larger tumour): 39 % of control

**Q.** How did the T/C (endpoint: median tumor weight (est.), dose: 1.56 mg/kg/injection, schedule: Q07DX002 (ip), vehicle: saline, higher = larger tumour) turn out when CC1(C)N=C(N)N=C(N)N1c1ccc(F)c(C(F)(F)F)c1 was run?
**A.** The T/C was 87 % of control.

**Q.** What about the T/C (endpoint: median tumor weight (est.), dose: 6.25 mg/kg/injection, schedule: Q07DX002 (ip), vehicle: saline, higher = larger tumour) of the same compound?
**A.** Its T/C is 81 % of control and 84 % of control.

**Q.** What about the T/C (endpoint: median tumor weight (est.), dose: 12.5 mg/kg/injection, schedule: Q07DX002 (ip), vehicle: saline, higher = larger tumour) of the same compound?
**A.** Its T/C is 50 % of control and 64 % of control.

**Q.** And the T/C (endpoint: median tumor weight (est.), dose: 12.5 mg/kg/injection, schedule: Q07DX003 (ip), vehicle: suspension in saline, higher = larger tumour)?
**A.** The T/C was 169 % of control.

**Q.** And the T/C [1]?
**A.** The T/C was 79 % of control and 91 % of control.

**Q.** What about the T/C (endpoint: median tumor weight (est.), dose: 25.0 mg/kg/injection, schedule: Q07DX003 (ip), vehicle: suspension in saline, higher = larger tumour) of the same compound?
**A.** The T/C was 161 % of control.

**Q.** What about the T/C [2] of the same compound?
**A.** The T/C was 40 % of control and 60 % of control.

**Q.** And the T/C (endpoint: median tumor weight (est.), dose: 50.0 mg/kg/injection, schedule: Q07DX003 (ip), vehicle: suspension in saline, higher = larger tumour)?
**A.** Its T/C is 95 % of control.

**Q.** And the T/C (endpoint: median tumor weight (est.), dose: 100.0 mg/kg/injection, schedule: Q07DX003 (ip), vehicle: suspension in saline, higher = larger tumour)?
**A.** The T/C was 104 % of control.
